From patent US20140147527A1, “COMPOSITIONS AND METHODS FOR TREATING EMOTIONAL-PSYCHOLOGICAL STRESS” (TSUKUBA UNIVERSITY, priority 2012, published 2014) come the findings set out here.

The data set deals with SH-SY5Y cells. Kind of data set: Cell viability assay (MTT) in SH-SY5Y cells. The class given is cell-based, human. To be noted: H2O2 0, 50, 100, 150, 200 or 250 μM, 24 hours. As to the method:
To determine the concentration of C. schoenanthus ethanol extracts which can be used to investigate their anti-stress effect, SH-SY5Y cells were cultured with several concentrations (1/100, 1/1000, or 1/10000 v/v dilution of C. schoenanthus ethanol extract in culturing medium) for 72 hours.
SH-SY5Y cells were treated with different concentrations of C. schoenanthus extract (at a 1/500, 1/750, 1/1000, 1/1500, or 1/2000 v/v dilution in medium) for 72 hours and cell viability was determined by MTT assay.
To evaluate whether H2O2 influences neuronal cytotoxicity, SH-SY5Y cells were treated with various concentrations of H2O2 (0, 50, 100, 150, 200, or 250 μM) for 24 hours.
A cell survival analysis was performed using 3-(4,5-Dimethylthiazol-2-yl)-2,5-diphenyltetrazolium bromide (MTT), which was dissolved in PBS to a final concentration of 5 mg/ml. […] Then, 100 μl of 10% of sodium dodecyl sulfate (SDS) was added and after overnight incubation, the absorbance was determined at 570 nm. The control wells which contained cultured cells with medium only were considered as 100% cell viability.

For the molecule `OO` [H2O2], the “cytotoxicity in SH-SY5Y cells” value is on record as “dose-dependent cytotoxicity”.
